Experimental data taken from BigSolDB 2.1.

O=P(O)(c1ccccc1)c1ccccc1
Conditions | solubility (mole fraction)
in 2-ethoxyethanol, 288.15 K | 0.00619
in 2-ethoxyethanol, 293.18 K | 0.00716
in 2-ethoxyethanol, 298.17 K | 0.0081
in 2-ethoxyethanol, 303.04 K | 0.00924
in 2-ethoxyethanol, 308.11 K | 0.0106
in 2-ethoxyethanol, 313.15 K | 0.0118
in 2-ethoxyethanol, 318.2 K | 0.0135
in 2-ethoxyethanol, 323.16 K | 0.0151
in 2-ethoxyethanol, 328.2 K | 0.0172
in 2-ethoxyethanol, 332.96 K | 0.0196
in 2-ethoxyethanol, 338.03 K | 0.0223
in 2-ethoxyethanol, 343.24 K | 0.0252
in 2-ethoxyethanol, 348.24 K | 0.0285
in 2-ethoxyethanol, 353.25 K | 0.0321
in 2-ethoxyethanol, 358.29 K | 0.036
in 2-ethoxyethanol, 363.1 K | 0.0401
in acetic acid, 293.23 K | 0.00426
in acetic acid, 303.15 K | 0.00604
in acetic acid, 313.03 K | 0.00827
in acetic acid, 323.15 K | 0.0112
in acetic acid, 333.21 K | 0.0151
in acetic acid, 343.04 K | 0.0209
in acetone, 293.25 K | 0.00051
in acetone, 298.18 K | 0.00068
in acetone, 303.12 K | 0.00091
in acetone, 308.23 K | 0.0012
in acetone, 313.19 K | 0.00156
in acetone, 318.21 K | 0.00203
in acetone, 323.24 K | 0.00244
in benzene, 293.15 K | 0.0007
in benzene, 303.19 K | 0.00112
in benzene, 313.17 K | 0.00183
in benzene, 322.95 K | 0.00291
in benzene, 333.21 K | 0.00459
in benzene, 343.12 K | 0.00706
in ethanol, 283.15 K | 0.00575
in ethanol, 288.15 K | 0.00671
in ethanol, 293.1 K | 0.00774
in ethanol, 298.07 K | 0.00889
in ethanol, 303.07 K | 0.0102
in ethanol, 308.15 K | 0.0117
in ethanol, 313.16 K | 0.0134
in ethanol, 318.16 K | 0.0152
in ethanol, 322.84 K | 0.0173
in ethanol, 327.94 K | 0.0198
in ethanol, 333.1 K | 0.0231
in ethanol, 337.97 K | 0.0264
in ethanol, 342.9 K | 0.0302
in ethyl acetate, 293.06 K | 0.00052
in ethyl acetate, 298.15 K | 0.0006
in ethyl acetate, 303.15 K | 0.00075
in ethyl acetate, 308.17 K | 0.00098
in ethyl acetate, 313.23 K | 0.00121
in ethyl acetate, 318.04 K | 0.00144
in ethyl acetate, 323.1 K | 0.00176
in ethyl acetate, 328.13 K | 0.00208
in ethyl acetate, 333.25 K | 0.00247
in ethyl acetate, 337.95 K | 0.00318
in isopropanol, 288.15 K | 0.00426
in isopropanol, 293.15 K | 0.00503
in isopropanol, 297.98 K | 0.00594
in isopropanol, 303.09 K | 0.00696
in isopropanol, 308.05 K | 0.00803
in isopropanol, 313.15 K | 0.00931
in isopropanol, 318.06 K | 0.0107
in isopropanol, 323.08 K | 0.0123
in isopropanol, 328.12 K | 0.0144
in isopropanol, 332.97 K | 0.0165
in isopropanol, 338.17 K | 0.0189
in isopropanol, 342.94 K | 0.0223
in isopropanol, 347.8 K | 0.0257
in toluene, 293.15 K | 0.00049
in toluene, 303.16 K | 0.00074
in toluene, 313.18 K | 0.00107
in toluene, 323.08 K | 0.00157
in toluene, 333.17 K | 0.00232
in toluene, 343.25 K | 0.00326
in toluene, 352.95 K | 0.00462
in toluene, 362.65 K | 0.00651
in water, 303.14 K | 5e-05
in water, 313.17 K | 8e-05
in water, 323.13 K | 0.00011
in water, 333 K | 0.00014
in water, 343.05 K | 0.00018
in water, 353.05 K | 0.00023
